Data taken from patent US12479840B2, “HMG-CoA reductase degradation inducing compound” (Uppthera, priority 2020, dated 2025).

Molecular target: T1, HMG-CoA reductase (Homo sapiens, UniProt P04035)
T1 construct: endogenous in cells; host or cells: HepG2 (Korea Cell Line Bank)
T1 sequence (P04035 1-888): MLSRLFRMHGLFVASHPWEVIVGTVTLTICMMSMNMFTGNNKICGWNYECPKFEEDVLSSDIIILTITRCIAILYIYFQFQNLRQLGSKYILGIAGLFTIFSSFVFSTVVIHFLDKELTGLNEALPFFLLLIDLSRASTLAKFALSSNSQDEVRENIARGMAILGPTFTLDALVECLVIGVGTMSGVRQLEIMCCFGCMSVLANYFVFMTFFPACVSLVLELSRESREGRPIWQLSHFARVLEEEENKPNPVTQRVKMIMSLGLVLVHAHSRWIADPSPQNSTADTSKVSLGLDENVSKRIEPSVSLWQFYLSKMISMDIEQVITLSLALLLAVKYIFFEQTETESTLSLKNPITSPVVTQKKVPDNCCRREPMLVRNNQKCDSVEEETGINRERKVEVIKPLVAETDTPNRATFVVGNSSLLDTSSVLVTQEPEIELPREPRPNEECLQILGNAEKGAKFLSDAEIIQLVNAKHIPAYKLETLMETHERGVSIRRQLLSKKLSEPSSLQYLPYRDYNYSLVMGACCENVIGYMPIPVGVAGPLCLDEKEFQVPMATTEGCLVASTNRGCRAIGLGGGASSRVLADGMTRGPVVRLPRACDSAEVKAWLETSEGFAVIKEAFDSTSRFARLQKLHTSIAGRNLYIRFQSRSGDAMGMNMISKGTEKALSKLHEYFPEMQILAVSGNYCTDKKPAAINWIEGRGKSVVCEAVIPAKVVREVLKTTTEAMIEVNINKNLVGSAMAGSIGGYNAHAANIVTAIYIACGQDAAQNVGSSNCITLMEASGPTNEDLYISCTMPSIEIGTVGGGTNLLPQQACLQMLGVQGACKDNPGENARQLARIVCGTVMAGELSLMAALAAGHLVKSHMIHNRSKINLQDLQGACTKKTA
Assay: HMG-CoA reductase (HMGCR) degradation in HepG2 cells by western blotting
Type: cell-based
Conditions: treated for 18 hours, ratio of HMG-CoA reductase to GAPDH, read-out: DC50
Procedure, shortened: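 HepG2 cells (passage P105–P110) treated 18 hours with compounds in 10-point three-fold dilutions from 3 μM. RIPA lysates (15 μg protein, BCA-quantified) run on SDS-PAGE and immunoblotted for HMGCR (1:500) with GAPDH (1:20000) as loading control, primary antibodies 16 hours at 4° C.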

| Structure (SMILES) | DC50 [nM] |
| --- | --- |
| C[C@H]1C=C2C=C[C@H](C)[C@H](CC[C@@H]3C[C@@H](O[Si](C)(C)C(C)(C)C)CC(=O)O3)[C@H]2[C@@H](OC(=O)NCCCCCCCCCCCNc2cccc3c2C(=O)N(C2CCC(=O)NC2=O)C3=O)C1 (stereo partly drawn) [Compound 57, (1S,3R,7S,8S,8aR)-8-(2-((2R,4R)-4-((tert-butyldimethylsilyl)oxy)-6-oxotetrahydro-2H-pyran-2-yl)ethyl)-3,7-dimethyl-1,2,3,7,8,8a-hexahydronaphthalen-1-yl (11-((2-(2,6-dioxopiperidin-3-yl)-1,3-dioxoisoindolin-4-yl)amino)undecyl)carbamate] | < 50 |
| C[C@H]1C=C2C=C[C@H](C)[C@H](CC[C@@H]3C[C@@H](O)CC(=O)O3)[C@H]2[C@@H](OC(=O)NCCCCCNc2cccc3c2C(=O)N(C2CCC(=O)NC2=O)C3=O)C1 (stereo partly drawn) [Compound 58, (1S,3R,7S,8S,8aR)-8-(2-((2R,4R)-4-hydroxy-6-oxotetrahydro-2H-pyran-2-yl)ethyl)-3,7-dimethyl-1,2,3,7,8,8a-hexahydronaphthalen-1-yl (5-((2-(2,6-dioxopiperidin-3-yl)-1,3-dioxoisoindolin-4-yl)amino)pentyl)carbamate] | 50 to 500 |
| C[C@H]1C=C2C=C[C@H](C)[C@H](CC[C@@H]3C[C@@H](O)CC(=O)O3)[C@H]2[C@@H](OC(=O)NCCCCCCNc2cccc3c2C(=O)N(C2CCC(=O)NC2=O)C3=O)C1 (stereo partly drawn) [Compound 59, (1S,3R,7S,8S,8aR)-8-(2-((2R,4R)-4-hydroxy-6-oxotetrahydro-2H-pyran-2-yl)ethyl)-3,7-dimethyl-1,2,3,7,8,8a-hexahydronaphthalen-1-yl (6-((2-(2,6-dioxopiperidin-3-yl)-1,3-dioxoisoindolin-4-yl)amino)hexyl)carbamate] | 50 to 500 |
| C[C@H]1C=C2C=C[C@H](C)[C@H](CC[C@@H]3C[C@@H](O)CC(=O)O3)[C@H]2[C@@H](OC(=O)NCCCCCCCNc2cccc3c2C(=O)N(C2CCC(=O)NC2=O)C3=O)C1 (stereo partly drawn) [Compound 60, (1S,3R,7S,8S,8aR)-8-(2-((2R,4R)-4-hydroxy-6-oxotetrahydro-2H-pyran-2-yl)ethyl)-3,7-dimethyl-1,2,3,7,8,8a-hexahydronaphthalen-1-yl (7-((2-(2,6-dioxopiperidin-3-yl)-1,3-dioxoisoindolin-4-yl)amino)heptyl)carbamate] | 50 to 500 |
| C[C@H]1C=C2C=C[C@H](C)[C@H](CC[C@@H]3C[C@@H](O)CC(=O)O3)[C@H]2[C@@H](OC(=O)NCCCCCCCCCNc2cccc3c2C(=O)N(C2CCC(=O)NC2=O)C3=O)C1 (stereo partly drawn) [Compound 62, (1S,3R,7S,8S,8aR)-8-(2-((2R,4R)-4-hydroxy-6-oxotetrahydro-2H-pyran-2-yl)ethyl)-3,7-dimethyl-1,2,3,7,8,8a-hexahydronaphthalen-1-yl (9-((2-(2,6-dioxopiperidin-3-yl)-1,3-dioxoisoindolin-4-yl)amino)nonyl)carbamate] | 50 to 500 |
| C[C@H]1C=C2C=C[C@H](C)[C@H](CC[C@@H]3C[C@@H](O[Si](C)(C)C(C)(C)C)CC(=O)O3)[C@H]2[C@@H](OC(=O)NCCOCCOCCNc2cccc3c2CN(C2CCC(=O)NC2=O)C3=O)C1 (stereo partly drawn) [Compound 65, (1S,3R,7S,8S,8aR)-8-(2-((2R,4R)-4-((tert-butyldimethylsilyl)oxy)-6-oxotetrahydro-2H-pyran-2-yl)ethyl)-3,7-dimethyl-1,2,3,7,8,8a-hexahydronaphthalen-1-yl (2-(2-(2-((2-(2,6-dioxopiperidin-3-yl)-1-oxoisoindolin-4-yl)amino)ethoxy)ethoxy)ethyl)carbamate] | < 50 |
| C[C@H]1C=C2C=C[C@H](C)[C@H](CC[C@@H]3C[C@@H](O[Si](C)(C)C(C)(C)C)CC(=O)O3)[C@H]2[C@@H](OC(=O)NCCOCCOCCNc2ccc3c(c2)C(=O)N(C2CCC(=O)NC2=O)C3=O)C1 (stereo partly drawn) [Compound 67, (1S,3R,7S,8S,8aR)-8-(2-((2R,4R)-4-((tert-butyldimethylsilyl)oxy)-6-oxotetrahydro-2H-pyran-2-yl)ethyl)-3,7-dimethyl-1,2,3,7,8,8a-hexahydronaphthalen-1-yl (2-(2-(2-((2-(2,6-dioxopiperidin-3-yl)-1,3-dioxoisoindolin-5-yl)amino)ethoxy)ethoxy)ethyl)carbamate] | < 50 |
| C[C@H]1C=C2C=C[C@H](C)[C@H](CC[C@@H]3C[C@@H](O)CC(=O)O3)[C@H]2[C@@H](OC(=O)NCCOCCOCCNc2ccc3c(c2)C(=O)N(C2CCC(=O)NC2=O)C3=O)C1 (stereo partly drawn) [Compound 68, (1S,3R,7S,8S,8aR)-8-(2-((2R,4R)-4-hydroxy-6-oxotetrahydro-2H-pyran-2-yl)ethyl)-3,7-dimethyl-1,2,3,7,8,8a-hexahydronaphthalen-1-yl (2-(2-(2-((2-(2,6-dioxopiperidin-3-yl)-1,3-dioxoisoindolin-5-yl)amino)ethoxy)ethoxy)ethyl)carbamate] | < 50 |

Further lines, results first:

| DC50 [nM] | Structure (SMILES) |
| --- | --- |
| < 50 | C[C@H]1C=C2C=C[C@H](C)[C@H](CC[C@@H]3C[C@@H](O)CC(=O)O3)[C@H]2[C@@H](OC(=O)NCCCCCCCCNc2cccc3c2C(=O)N(C2CCC(=O)NC2=O)C3=O)C1 (stereo partly drawn) [Compound 61, (1S,3R,7S,8S,8aR)-8-(2-((2R,4R)-4-hydroxy-6-oxotetrahydro-2H-pyran-2-yl)ethyl)-3,7-dimethyl-1,2,3,7,8,8a-hexahydronaphthalen-1-yl (8-((2-(2,6-dioxopiperidin-3-yl)-1,3-dioxoisoindolin-4-yl)amino)octyl)carbamate] |
| < 50 | C[C@H]1C=C2C=C[C@H](C)[C@H](CC[C@@H]3C[C@@H](O)CC(=O)O3)[C@H]2[C@@H](OC(=O)NCCCCCCCCCCNc2cccc3c2C(=O)N(C2CCC(=O)NC2=O)C3=O)C1 (stereo partly drawn) [Compound 63, (1S,3R,7S,8S,8aR)-8-(2-((2R,4R)-4-hydroxy-6-oxotetrahydro-2H-pyran-2-yl)ethyl)-3,7-dimethyl-1,2,3,7,8,8a-hexahydronaphthalen-1-yl (10-((2-(2,6-dioxopiperidin-3-yl)-1,3-dioxoisoindolin-4-yl)amino)decyl)carbamate] |
| < 50 | C[C@H]1C=C2C=C[C@H](C)[C@H](CC[C@@H]3C[C@@H](O)CC(=O)O3)[C@H]2[C@@H](OC(=O)NCCCCCCCCCCCNc2cccc3c2C(=O)N(C2CCC(=O)NC2=O)C3=O)C1 (stereo partly drawn) [Compound 64, (1S,3R,7S,8S,8aR)-8-(2-((2R,4R)-4-hydroxy-6-oxotetrahydro-2H-pyran-2-yl)ethyl)-3,7-dimethyl-1,2,3,7,8,8a-hexahydronaphthalen-1-yl (11-((2-(2,6-dioxopiperidin-3-yl)-1,3-dioxoisoindolin-4-yl)amino)undecyl)carbamate] |
| < 50 | C[C@H]1C=C2C=C[C@H](C)[C@H](CC[C@@H]3C[C@@H](O)CC(=O)O3)[C@H]2[C@@H](OC(=O)NCCOCCOCCNc2cccc3c2CN(C2CCC(=O)NC2=O)C3=O)C1 (stereo partly drawn) [Compound 66, (1S,3R,7S,8S,8aR)-8-(2-((2R,4R)-4-hydroxy-6-oxotetrahydro-2H-pyran-2-yl)ethyl)-3,7-dimethyl-1,2,3,7,8,8a-hexahydronaphthalen-1-yl (2-(2-(2-((2-(2,6-dioxopiperidin-3-yl)-1-oxoisoindolin-4-yl)amino)ethoxy)ethoxy)ethyl)carbamate] |
